Assay results as given in patent publication US8796230B2, “Ivermectin antagonizes ethanol inhibition in P2X4 receptors” (University of Southern California, priority 2010, dated 2014).
Positions count from the first letter of the chain named. Entries after “also recorded” stand apart in the source; their conditions may differ. Where two headings read alike, the source gives them in different places.

How the values were obtained:
rat P2X4R = target: T1, rat P2X4R (Rattus norvegicus, UniProt P51577); test: Two-electrode voltage-clamp of ATP EC10-induced currents in WT P2X4Rs expressed in Xenopus oocytes; assay type: cell-based
T1 construct: expressed in transfected cells; host or cells: Xenopus laevis oocytes injected with cRNA
T1 sequence (P51577 1-388): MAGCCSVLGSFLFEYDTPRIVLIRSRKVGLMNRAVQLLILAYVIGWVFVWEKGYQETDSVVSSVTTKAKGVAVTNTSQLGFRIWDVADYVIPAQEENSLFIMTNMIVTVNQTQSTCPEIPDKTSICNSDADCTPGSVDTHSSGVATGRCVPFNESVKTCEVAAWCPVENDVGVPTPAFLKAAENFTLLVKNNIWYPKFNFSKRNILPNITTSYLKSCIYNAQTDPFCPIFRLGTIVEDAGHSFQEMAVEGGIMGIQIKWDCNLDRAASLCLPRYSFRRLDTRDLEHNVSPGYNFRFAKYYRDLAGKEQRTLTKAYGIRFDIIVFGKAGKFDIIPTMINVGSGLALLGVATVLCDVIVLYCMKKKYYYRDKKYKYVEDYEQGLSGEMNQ
Procedure: Isolation of Xenopus Laevis oocytes and cRNA injections. Xenopus oocytes were isolated and maintained as described previously^18,19. All procedures for the maintenance of Xenopus Laevis frogs and oocyte isolation were approved by The Institutional Animal Care and Use Committee of the University of Southern California. Stage V and VI oocytes were used for cRNA (0.01-5 ng) injections using Nanoject II Nanoliter injection system (Drummond Scientific, Broomall, Pa.) one day after isolation. Injected oocytes were stored at 16° C. in incubation medium containing (in mM), […], theophylline 0.6, pyruvic acid 2.5, with 1% horse serum and 0.05 mg/ml gentamycin. The oocytes were used in electrophysiological recordings for 3-10 days after cRNA injections.
(§1) Site-directed mutagenesis and cRNA synthesis. The cDNA of rat P2X4R (GenBank accession No. X87763) was sub-cloned into pcDNA3 vector (Invitrogen, Carlsbad, Calif.). Mutagenesis was performed to introduce single point mutations using QuickChange IIXL Site-Directed Mutagenesis kit (Stratagene, La Jolla, Calif.). The sequences of mutant constructs were verified using automated DNA sequencing (USC/Norris DNA Core Facility, University of Southern California).
The DNA of WT or mutant receptors was linearized and transcribed using the mMESSAGE mMACHINE kit (Ambion, Austin, Tex.) to result in cRNA, which was stored at −70° C. until injection.
(§2) Whole-cell voltage-clamp recordings. Two-electrode voltage-clamp recordings of oocytes were performed using a Warner Instruments Model OC-725C oocyte clamp amplifier (Hamden, Conn.) using procedures published earlier^5,6.
(§3) Experimental procedures. To induce currents and test the effects of alcohols and IVM in the present experiments, maximal (100 μM) or submaximal ATP concentrations (EC5-10 furthered referred to as EC10) were used. It has been previously shown that the use of EC10 can maximize the effects of ethanol and minimize receptor desensitization 18,19. The washout time between agonist applications was at least 5-10 min to allow complete re-sensitization of the receptors^18, 19.
(§4) Effects of the drugs were tested after a stable response to ATP EC10 was obtained. After a sufficient washout time (5-15 min), the cells were challenged with the same ATP EC10 to ensure an accurate response to the drugs and to asses any change in the baseline level.
(§5) IVM and alcohol applications.
(§6) Data analysis. Data are obtained from several batches of oocytes of at least 3 different frogs and are expressed as mean±SEM. Ethanol (hexanol) and/or IVM effects are presented as percentage change of peak currents evoked by ATP EC10 alone. Data were fitted to a concentration-response curve by using the following logistic equation: I=Imax*[drug]/([drug]+(EC50)), where I/Imax is the percentage of the maximum obtainable response, EC50 is the concentration producing a half-maximal response. GraphPAD Prism software (San Diego, Calif.) was used for data analysis and curve fitting. Statistical analysis was performed using unpaired t-test with significance set at P<0.05.

[1] = target: T2, mutant P2X4Rs at position 336 (Rattus norvegicus, UniProt P51577, M336Q); test: Two-electrode voltage-clamp of ATP-induced currents in mutant P2X4Rs with substitutions at position 336 in Xenopus oocytes; assay type: cell-based; settings: Met336 substituted with Gln; IVM 3 μM
T2 construct: expressed in transfected cells; host or cells: Xenopus laevis oocytes injected with cRNA
T2 sequence (P51577 1-388 M336Q): T1 sequence (P51577 1-388) with M336Q
Procedure: as §1, §2, §3, §4, §5, §6

[2] = test system: mutant P2X4Rs at position 336; test: as above; assay type: cell-based, rat; settings: IVM 3 μM
Procedure: as §1, §2, §3, §4, §5, §6

P2X4Rs = target: T3, P2X4Rs (Rattus norvegicus, UniProt P51577); test: Surface biotinylation and Western blotting of P2X4R surface expression in oocytes; assay type: cell-based; settings: 3 μM IVM in the presence of 1 μM ATP; 20 s and 2 min
T3 construct: expressed in transfected cells; host or cells: Xenopus laevis oocytes injected with cRNA
T3 sequence (P51577 1-388): T1 sequence (P51577 1-388)
Procedure: Surface biotinylation and Western blotting. Oocytes expressing P2X4R cRNA were treated with 3 μM IVM in the presence and absence of 1 μM ATP and incubated with 1.0 mg/ml membrane-impermeable sulfo-NHS-SS-biotin (Pierce Biotechnology, Rockford, Ill.) for 1 hr on ice. After lysis, the biotinylated proteins were precipitated by overnight incubation with streptavidin beads (Pierce Biotechnology) and extracted using SDS sample buffer. Protein lysates of total and biotinylated fractions were then run on 10% SDS-PAGE, transferred to PVDF membranes and blotted with a rabbit P2X4R antibody (Millipore, Temecula, Calif.). Following incubation with the secondary anti-rabbit antibody, the P2X4R bands were visualized using enhanced chemiluminescence (Pierce Biotechnology).

rat WT P2X4 receptor = target: T4, rat WT P2X4 receptor (Rattus norvegicus, UniProt P51577); test: Comparison of Ivermectin analogues: two-electrode voltage-clamp of ATP EC10 currents in rat WT P2X4 receptor in Xenopus oocytes; assay type: cell-based; settings: for potentiation of ATP-induced currents, concentration dependence: co-application and pre-incubation (FIGS. 10C and 10D)
T4 construct: expressed in transfected cells; host or cells: Xenopus laevis oocytes injected with cRNA
T4 sequence (P51577 1-388): T1 sequence (P51577 1-388)
Procedure: Isolation of Xenopus Oocytes and cRNA Injections. Xenopus laevis frog (Nasco; WI) maintenance, oocyte isolation and cRNA injections were performed according to protocols as described previously (11,12,24).
Transcription of cDNA to cRNA. XL-Blue E. coli competent cells (Stratagene; CA) were transformed with rat WT P2X4 receptor cDNAs cloned into pcDNA3 vector (Invitrogen; CA). The isolated DNA was linearized and transcribed to result in capped cRNA, which was dissolved in nuclease-free water and stored at −70° C. until injection.
Whole-Cell Voltage Clamp Recording. […] Electrodes were prepared and used to impale the oocyte that was continuously perfused at the rate of 3-4 ml/min by extracellular bathing solution per procedures previously published (11,12,24). The peak currents recorded using a strip-chart recorder (Barnstead/Thermolyne, Iowa) were used in data analysis. All experiments were performed at room temperature (20-23° C.).
Experimental Procedures. Maximal ATP currents were induced by 15 s application of 100 μM ATP. Submaximal ATP concentrations (EC10) were applied for 20 s to generate currents. Ethanol and ABM/IVM were co-applied with ATP EC10. Washout time between drug applications was at least 5 min.
Data Analysis. Data are obtained from several batches of at least 3 different oocyte batches and are presented as percentage change of peak currents evoked by ATP EC10 alone±SEM. GraphPAD Prism software (San Diego, Calif.) was used for data analysis and curve fitting. Statistical analysis was performed using Student's unpaired t-test and significance set at P<0.05.

male C57BL/6 mice = settings: for decrease in alcohol consumption: 10% alcohol, 24 hour access
uninjected oocytes = test: Resting membrane currents in uninjected oocytes
Text: IVM and alcohol applications. […] To allow comparison of the effects of IVM with those of ethanol, the same co-application protocol was used for IVM.

C57BL/6 mice = test: Two-bottle choice ethanol (10E versus water) intake in C57BL/6 mice
Procedure: Based on the initial experiments, a second study was conducted using a similar research design strategy with the following changes. Using a within subjects design, alcohol drinking was allowed to stabilize (based on DOSE approximately 10 g/kg) with a new set of C57Bl mice (n=15). […] On intervening days, the mice were injected with saline. After 3 days of saline injections (allowing for alcohol drinking to restabilize back to ‘baseline’ levels), the mice were injected with a single, higher dose of IVM (5.0 mg/kg). Once again drinking was allowed to re-established back to baseline.

P2X2R = test: Effect of n-chain alcohols on P2X2R function (unpublished data); assay type: cell-based
Text: This possibility was investigated by testing the effects of IVM on another n-chain alcohol. Previous investigations report that short chain alcohols potentiate, whereas long chain alcohols inhibit, native nicotinic acetylcholine receptors (nAChRs) contained in neuromuscular or Torpedo preparations^26-28. This alcohol crossover occurred at approximately butanol in nAChRs expressed in Xenopus oocytes^29. […] It is believed that testing an alcohol that produced potentiation, rather than inhibition, would provide an alternative method of determining if the interaction between ethanol and IVM represented an additive effect.

[3] = test system: mutant P2X4Rs at position 336; settings: cited from earlier work

CC[C@H](C)[C@H]1O[C@]2(CC[C@@H]1C)C[C@@H]1C[C@@H](C/C=C(\C)[C@@H](O[C@H]3C[C@H](OC)[C@@H](O[C@H]4C[C@H](OC)[C@@H](O)[C@H](C)O4)[C@H](C)O3)[C@@H](C)/C=C/C=C3\CO[C@@H]4[C@H](O)C(C)=C[C@@H](C(=O)O1)[C@]34O)O2 [IVM, 5-O demethyl-22,23-dihydroavermectin A1a]
antagonism of the inhibitory effect of ethanol on ATP-activated currents (rat P2X4R; 0.5 μM IVM co-applied with 25 mM ethanol): completely antagonized
potentiation of ATP-gated currents in P2X4Rs (rat P2X4R; 0.5 μM IVM, delivered separately, ATP EC10): 31±4.9%
antagonism of the inhibitory effects of ethanol (rat P2X4R; IVM 0.5 μM, 200 mM ethanol): did not significantly alter
antagonism of the inhibitory effects of ethanol (rat P2X4R; IVM 0.5 μM, 50 and 100 mM ethanol): completely antagonized
effect on ATP-induced currents in P2X4R (rat P2X4R; IVM 3 μM applied individually): significantly potentiated
net result of exposure to both IVM and hexanol versus additive effects (rat P2X4R; IVM 3 μM with hexanol 10 mM): significantly less
combined action of IVM and ethanol versus estimated additive values of the individual effects (rat P2X4R; IVM 0.5, 1 and 3 μM with ethanol 50, 100, 200 mM): significantly lower
antagonism of the inhibitory effects of ethanol (rat P2X4R; IVM 1.0 and 3.0 μM, all ethanol concentrations (50-200 mM)): completely antagonizing
effect on EC10 ATP-gated currents in P2X4Rs (rat P2X4R; IVM co-applied with ATP, concentration-dependent and reversible): significantly potentiated
IVM sensitivity compared to non-polar bulky substitutions [1]: approximately the same effect
degree of IVM potentiation compared to WT P2X4Rs ([2]; Met336 substituted with Ala or Val): markedly increased
sensitivity to IVM ([2]; Met336 substituted with Arg or Glu): eliminated sensitivity
degree of IVM potentiation compared to WT P2X4Rs ([2]; Met336 substituted with Phe or Trp): increased IVM potentiation
surface expression levels of P2X4Rs in oocytes (P2X4Rs): did not change
antagonism of the inhibitory effects of ethanol (rat WT P2X4 receptor; IVM co-applied with ethanol (FIGS. 9A and B)): antagonizes
potentiation of ATP-induced currents, concentration dependence (rat WT P2X4 receptor): concentration dependent
decrease in alcohol consumption (male C57BL/6 mice; IVM 2.5 mg/kg): 32%
decrease in alcohol consumption (male C57BL/6 mice; IVM 10 mg/kg): 50%
resting membrane currents in uninjected oocytes (uninjected oocytes): did not affect
average water consumption (C57BL/6 mice; IVM 10 mg/kg intraperitoneally): significant increase
ethanol intake (C57BL/6 mice; IVM 10 mg/kg intraperitoneally): non-significant reduction
daily 10E preference (C57BL/6 mice; IVM 10 mg/kg intraperitoneally prior to each day of access, 4 days, versus saline): strong trend
10E preference on day 3 (C57BL/6 mice; IVM 10 mg/kg intraperitoneally, day 3): significantly lower
ethanol consumption (C57BL/6 mice; single injection of IVM 2.5 mg/kg and 5.0 mg/kg, within subjects design, versus baseline with saline): significantly reduced

CCO [ethanol]
inhibition at 25000 µM (rat P2X4R; 25 mM ethanol, delivered separately, ATP EC10, read-out: inhibition of ATP-gated currents in P2X4Rs): 9 ± 2.3%
effect on ATP EC10-induced currents in P2X4Rs (rat P2X4R; ethanol 25-200 mM co-applied with ATP, concentration-dependent and reversible): inhibited
effect on ATP-induced currents in P2X4R (rat P2X4R; ethanol (C2) 200 mM): inhibited
effect on P2X2R function (P2X2R): inhibit
sensitivity of the receptor to ethanol ([3]; Ala, Val at position 336): reduced
sensitivity of the receptor to ethanol ([3]; Arg or Glu at position 336): insensitive

CCCCCCO [hexanol]
effect on ATP-induced currents in P2X4R (rat P2X4R; hexanol (C6) 10 mM): significantly potentiated; also recorded: significant potentiation

CCCO [propanol]
effect on P2X2R function (P2X2R): inhibit

Abamectin [ABM]
antagonism of the inhibitory effects of ethanol (rat WT P2X4 receptor; ABM 0.5 μM, 25 and 50 mM ethanol): antagonizes
antagonism of the inhibitory effects of ethanol (rat WT P2X4 receptor; ABM 1.0 μM, all ethanol concentrations tested): able to antagonize
potency in modulating P2X4R activity relative to IVM (more potent) (rat WT P2X4 receptor; higher concentrations (≧3 μM)): 3-10 fold
potentiation of P2X4R activity compared with IVM (rat WT P2X4 receptor; lower concentrations (0.5 and 1.0 μM)): to the same degree as IVM

Selamectin
potency in modulating P2X4R activity relative to IVM (lower potency) (rat WT P2X4 receptor): 3-5 fold
antagonism of the inhibitory effects of ethanol (rat WT P2X4 receptor; SEL at 3 and 10 mM, 50 mM ethanol, co-application): antagonistic effect
potentiation of ATP-induced currents, concentration dependence (rat WT P2X4 receptor): small concentration-independent potentiation
potentiation of P2X4Rs (rat WT P2X4 receptor; only at 10 μM SEL during co-application): Significant potentiation
potentiation with the pre-incubation protocol versus co-application (rat WT P2X4 receptor; pre-incubation): higher potentiation
ethanol intake in mice (male C57BL/6 mice; mouse, in vivo): no effect

butanol
effect on ATP-induced currents in P2X4R (rat P2X4R; butanol (C4) 50 mM): minimal effect
effect on ATP-induced currents in P2X4R (rat P2X4R; butanol (C4) 50 mM, listed as Butanol): minimal effects
effect on P2X2R function (P2X2R): potentiates
